In publication PMC9883540, “Study on pharmacokinetic interactions between SHR2554 and itraconazole in healthy subjects: A single‐center, open‐label phase I trial” (Cancer Medicine, 2022):
Values joined by “and” are separate entries in the source; they are usually repeats but may differ in a detail not shown here. Equal entries are not always repeated. “Also recorded” adds a separate entry of the source. Where two headings read alike, the source gives them in different places.

How the values were obtained:
[1] = cited from earlier work
[2] = in vivo
Protocol: Eighteen volunteers were recruited for the study. The subjects were orally administered SHR2554 at a 50 mg daily dose (Day 1); then, they were orally administered itraconazole 200 mg Quaque Die (QD) for 4 days (Days 4–7) followed by co‐administration of itraconazole 200 mg and SHR2554 50 mg (Day 8). They took itraconazole 200 mg QD for 4 days (Days 9–12). All subjects were fasted for at least 10 h, and they ate a standard meal in 30 min before drug administration. Water was forbidden within 1 h after drug administration, and the subjects were fasted for at least 4 h after drug administration.
Safety evaluation included adverse events, laboratory tests, physical examination, measurement of vital signs, 12‐lead electrocardiogram, etc. All abnormal and clinically significant laboratory results were followed up until they returned to normal.

[3] = tested on: CYP3A4; settings: sponsor's preclinical studies, no method or reference given; cited from earlier work
[4] = cited from earlier work; remark: listed apart in the source
[5] = tested on: wild‐type and mutant EZH2 enzymes; settings: no method or reference given; cited from earlier work
[6] = tested on: CYP3A4; settings: preclinical test, no method or reference given; cited from earlier work
[7] = tested on: Caco‐2 cell model; parameters: method as in PMID 34498807; settings: preclinical results; cited from earlier work
[8] = tested on: tumor; settings: same dose; no reference given; cited from earlier work
[9] = tested on: cell H3K27Me3 and cell proliferation; parameters: method as in PMID 34503063; settings: cited from earlier work
[10] = tested on: CYP3A4; settings: preclinical test, no method or reference given; cited from earlier work; remark: listed apart in the source
[11] = Pharmacokinetic interaction study of itraconazole on SHR2554, plasma SHR2554 by HPLC-MS/MS; type: in vivo, human; settings: for AUC0–t / AUC0–∞ / C max: plasma SHR2554, mean ± SD
Protocol: Eighteen volunteers were recruited for the study. […] The samples of venous blood (4 ml) were collected into heparinized Vacutainer™ tubes and mixed gently. […] Thereafter, plasma was separated by centrifugation (2000g at 4°C for 10 min) within 1 h of sample collection and then stored at −80°C before analyses. The plasma concentrations of SHR2554 were determined by a validated method with sensitivity and specificity using high‐performance liquid chromatography–tandem mass spectrometry (HPLC‐MS/MS) by Shanghai InnoStar Bio‐tech Co. Ltd. Blood samples were pretreated by protein precipitation with acetonitrile. Biological sample analysis was performed using SHR149633 (free base) as an internal standard. Separation of SHR2554 was carried out using a […] ZORBAX Extend‐C18 column (2.1 × 50 mm, 1.8 μm), and analytes were detected on an AB SCIEX QTRAP 5500 mass spectrometer. The assay was linear over the range of 1–2000 ng·ml^−1. […] Plasma samples are stable under various conditions. The PK parameters were evaluated using Phoenix WinNonlin v8.1. Statistical analysis was performed with SAS v9.2 (SAS Institute). Descriptive statistics and tabulation of PK parameters for analytes were performed, and mean concentration‐time curves were plotted. After natural log transformation, the PK parameters were fitted with a mixed‐effects model. In the mixed‐effects model analysis, medication (itraconazole combined with SHR2554 or SHR2554 alone) was used as a fixed effect, and the participants in the model fitting were used as random effects. The corrected least‐square mean difference and 90% confidence interval (CI) between the administration of a single drug (SHR2554) alone and a combination drug (co‐administration of SHR2554 and itraconazole) were obtained. The corrected least‐square mean difference and its 90% confidence interval were converted to the adjusted geometric mean ratios (GMRs) (co‐administration of SHR2554 and itraconazole/SHR2554 alone) and its 90% confidence interval by taking the antilog.

[12] = cited from earlier work; remark: listed apart in the source
[13] = completed or ongoing clinical trials of SHR2554, reference not given
[14] = SHR2554 50 mg co-administered with itraconazole 200 mg (Day 8), fed, mean ± SD
[15] = SHR2554 50 mg co-administered with itraconazole 200 mg (Day 8), fed
[16] = SHR2554 50 mg single oral dose alone (Day 1), fed, mean ± SD
[17] = SHR2554 50 mg single oral dose alone (Day 1), fed
[18] = SHR2554 50 mg, itraconazole 200 mg, 90% CI in brackets

Compound: CC[C@H](C)n1cc(C)c2c(C(=O)NCc3c(C)cc(C)[nH]c3=O)cc(-c3ccc(N4CCNCC4)nc3)cc21 [GSK2816126, reference compound]
- most common adverse reactions in clinical trial [1]: fatigue and nausea

Compound: CCC(C)n1ncn(-c2ccc(N3CCN(c4ccc(OCC5COC(Cn6cncn6)(c6ccc(Cl)cc6Cl)O5)cc4)CC3)cc2)c1=O (stereo not shown) [Itraconazole, itraconazole]
- Itraconazole‐related TEAEs, Cases ([2]; human): 2
- Itraconazole‐related TEAEs, Number of subjects (%) ([2]; human): 2 (11.1)
- SHR2554‐related TEAEs, Cases ([2]; human): 1
- SHR2554‐related TEAEs, Number of subjects (%) ([2]; human): 1 (5.6)
- TEAEs, Cases ([2]; human): 2
- TEAEs, Number of subjects (%) ([2]; human): 2 (11.1)
- TEAEs, Total ([2]; human): 2 (11.1)
- TEAEs: All kinds of inspection ([2]; human): 1 (5.6)
- TEAEs: Appendicitis ([2]; human): 0
- TEAEs: Blood in the urine ([2]; human): 0
- TEAEs: Cardiac organ diseases ([2]; human): 0
- TEAEs: Hematuria ([2]; human): 0
- TEAEs: High blood uric acid ([2]; human): 0
- TEAEs: Increased blood bilirubin ([2]; human): 0
- TEAEs: Increased blood triglyceride ([2]; human): 1 (5.6)
- TEAEs: Increased heart rate ([2]; human): 0
- TEAEs: Infectious diseases ([2]; human): 0
- TEAEs: Kidney and urinary system diseases ([2]; human): 0
- TEAEs: Positive bacterial tests ([2]; human): 0
- TEAEs: Positive urine leukocyte ([2]; human): 0
- TEAEs: Rash ([2]; human): 1 (5.6)
- TEAEs: Skin and subcutaneous tissue diseases ([2]; human): 1 (5.6)
- TEAEs: Spermaturia ([2]; human): 0
- TEAEs: Supraventricular extrasystole contraction ([2]; human): 0
- drug-related TEAEs, Cases ([2]; human): 6
- drug-related TEAEs, Cases [2]: six

Compound: CCc1c(N(CC)C2CCOCC2)cc2oc(CN3CCCCC3)cc2c1C(=O)NCc1c(C)cc(C)[nH]c1=O [SHR2554]
- enzyme catalysing the oxidative metabolism [3]: mainly metabolized by CYP3A4; also recorded: mainly catalyzed by CYP3A4
- subjects with grade four neutropenia reported as SAE/DLT ([4]; 350 mg group, ref NCT03603951): one
- subjects with grade three and four decreased platelet counts reported as SAE/DLT ([4]; 400 mg BID group, as of January 3, 2020, ref NCT03603951): two
- safety at doses below 300 mg BID (including 300 mg BID) ([4]; no drug-related SAE or DLT, previous clinical studies, ref NCT03603951): good and good safety profile
- recommended phase II dose ([4]; previous clinical studies, ref NCT03603951): 350 mg BID
- increase of exposure relative to increase of dose ([4]; range of 50–400 mg BID, ref NCT03603951): higher than that of the administered dose
- subjects with grade two anemia reported as SAE ([4]; ref NCT03741712): one
- electrocardiogram finding in some subjects ([1]; completed or ongoing clinical trials of SHR2554, clinically controllable, no reference given): prolongation of the QT interval of the electrocardiogram
- most common drug-related TEAEs in hematology [1, 13]: decreased white blood cell count, thrombocytopenia, neutropenia, and hyperlipidemia, increased aspartate aminotransferase level, hypertension, elevated alanine aminotransferase, anemia
- non-hematological common drug-related TEAEs [1, 13]: nausea and fatigue
- inhibition of the activity of wild-type and mutant EZH2 enzymes [5]: potently inhibits
- induction of the expression of the CYP3A4 enzyme [6]: only high concentration SHR2554 can induce
- permeability [7]: low permeability
- serum and tumor systemic exposure as fraction of that of EPZ-6438 [8]: about one‐fifth
- tumor inhibition rate relative to the reference compound EPZ-6438 [8]: higher
- IC50 for inhibiting cell H3K27Me3 and cell proliferation, relative to EPZ-6438 [9]: comparable or even better
- anti-tumor activity in vitro, relative to EPZ-6438 (tazemetostat) [9]: comparable
- inhibitory effect on CYP3A4 [10]: weak inhibitory effect
- Itraconazole‐related TEAEs, Cases [2]: 2
- Itraconazole‐related TEAEs, Number of subjects (%) [2]: 2 (11.1)
- SHR2554‐related TEAEs, Cases [2]: 12
- SHR2554‐related TEAEs, Number of subjects (%) [2]: 9 (50.0)
- TEAEs, Cases [2]: 13
- TEAEs, Number of subjects (%) [2]: 9 (50.0)
- TEAEs, Total [2]: 9 (50.0)
- TEAEs: All kinds of inspection [2]: 8 (44.4)
- TEAEs: Appendicitis [2]: 0
- TEAEs: Blood in the urine [2]: 2 (11.1)
- TEAEs: Cardiac organ diseases [2]: 1 (5.6)
- TEAEs: Hematuria [2]: 1 (5.6)
- TEAEs: High blood uric acid [2]: 1 (5.6)
- TEAEs: Increased blood bilirubin [2]: 0
- TEAEs: Increased blood triglyceride [2]: 4 (22.2)
- TEAEs: Increased heart rate [2]: 1 (5.6)
- TEAEs: Infectious diseases [2]: 0
- TEAEs: Kidney and urinary system diseases [2]: 2 (11.1)
- TEAEs: Positive bacterial tests [2]: 2 (11.1)
- TEAEs: Positive urine leukocyte [2]: 0
- TEAEs: Rash [2]: 0
- TEAEs: Skin and subcutaneous tissue diseases [2]: 0
- TEAEs: Spermaturia [2]: 1 (5.6)
- TEAEs: Supraventricular extrasystole contraction [2]: 1 (5.6)
- drug-related TEAEs, Cases [2]: 16
- CL/F (apparent clearance) [11, 14]: 98.4 ± 46.96 L/h
- t 1/2 (elimination half-life) [11, 14]: 8.678 ± 3.6031 h
- AUC0–t [11, 15]: 612.13 ± 315.720 ng·h/mL
- AUC0–∞ [11, 15]: 641.53 ± 319.538 ng·h/mL
- C max ([11]; SHR2554 50 mg co-administered with itraconazole 200 mg (Day 8; itraconazole 200 mg QD Days 4-12), fed): 70.538 ± 25.0219 ng/mL
- plasma concentration of all subjects at 96 h ([11]; SHR2554 50 mg combined with itraconazole 200 mg): below LLOQ
- AUC_%Extrap (percentage of AUCINF_pred due to extrapolation from Tlast to infinity) [11, 16]: 14.498 ± 2.9731 (20.51) [N = 8] %
- CL/F (apparent clearance) [11, 16]: 2127.7 ± 1592.02 L·h^−1 and 2127.7 ± 1592.02 (74.82) [N = 18] L·h^−1
- T max [11, 16]: 1.472 ± 0.6286 (0.50, 3.00) [N = 18] h
- V z /F [11, 16]: 8439.2 ± 3779.31 (44.78) [N = 18] L
- t 1/2 (elimination half-life) [11, 16]: 3.287 ± 1.0636 (1.76, 5.94) [N = 18] h
- AUC0–t [11, 17]: 28.70 ± 18.913 (65.90) [N = 18] h·ng·ml^−1
- AUC0–∞ [11, 17]: 50.99 ± 19.358 (37.97) [N = 8] h·ng·ml^−1
- C max [11, 17]: 10.197 ± 7.0262 (68.91) [N = 18] ng·ml^−1
- adjusted geometric mean ratio of SHR2554 AUC0–t (co-administration with itraconazole / SHR2554 alone) [11, 18]: 23.75 fold
- adjusted geometric mean ratio of SHR2554 AUC0–∞ (co-administration with itraconazole / SHR2554 alone) [11, 18]: 12.47 fold
- adjusted geometric mean ratio of SHR2554 C max (co-administration with itraconazole / SHR2554 alone) [11, 18]: 7.73 fold
- plasma concentration of all subjects at 24 h after administration ([11]; single-dose phase of SHR2554 50 mg, assay range 1–2000 ng·ml^−1): below lower limit of quantitation

Compound: CC[C@H](C)C(=O)O[C@H]1C[C@@H](C)C=C2C=C[C@H](C)[C@H](CC[C@@H](O)C[C@@H](O)CC(=O)O)[C@H]21 [lovastatin (acid)]
- change in the AUC with itraconazole ([12]; itraconazole dose 100 mg): 15 fold
- change in the AUC with itraconazole ([12]; itraconazole dose 200 mg): 20 fold

Compound: CCN(c1cc(-c2ccc(CN3CCOCC3)cc2)cc(C(=O)NCc2c(C)cc(C)[nH]c2=O)c1C)C1CCOCC1 [tazemetostat, reference compound]
- adverse effects in clinical trial [1]: thrombocytopenia, neutropenia, and anemia
